Assay results taken from the NIST ThermoML archive (doi:10.1016/j.fluid.2006.12.012).

Assays:
[1] = xn = mol fraction of the nth substance listed; details: 303.15 K, 101 kPa, Liquid, Direct dilatometry
[2] = excess molar enthalpy (molar enthalpy of mixing); xn = mol fraction of the nth substance listed; details: 298.15 K, 101 kPa, Liquid
[3] = 298.15 K; 101.33 kPa; Liquid; Pycnometric method
[4] = refractive index (Na D-line) (dimensionless); details: 298.15 K; 101.33 kPa; Liquid; Standard Abbe refractometry

CC(C)CCO [3-methylbutan-1-ol] + CN1CCCC1=O
Details | excess molar enthalpy [kcal/mol] | excess molar volume [m3/mol]
[1], x2 = 0.0999 | – | -7.8e-08
[1], x2 = 0.2737 | – | -1.69e-07
[1], x2 = 0.3718 | – | -1.97e-07
[1], x2 = 0.4155 | – | -2.09e-07
[1], x2 = 0.5254 | – | -2.01e-07
[1], x2 = 0.6399 | – | -1.76e-07
[1], x2 = 0.7034 | – | -1.49e-07
[1], x2 = 0.8699 | – | -7.3e-08
[1], x2 = 0.9384 | – | -3.6e-08
[2], x2 = 0.0777 | 0.0394 | –
[2], x2 = 0.149 | 0.0727 | –
[2], x2 = 0.2286 | 0.101 | –
[2], x2 = 0.3011 | 0.112 | –
[2], x2 = 0.3692 | 0.12 | –
[2], x2 = 0.4301 | 0.119 | –
[2], x2 = 0.4847 | 0.116 | –
[2], x2 = 0.5348 | 0.113 | –
[2], x2 = 0.5484 | 0.114 | –
[2], x2 = 0.5792 | 0.108 | –
[2], x2 = 0.6031 | 0.103 | –
[2], x2 = 0.6712 | 0.0904 | –
[2], x2 = 0.744 | 0.0778 | –
[2], x2 = 0.8153 | 0.0615 | –
[2], x2 = 0.8821 | 0.0416 | –
[2], x2 = 0.9444 | 0.0212 | –

CC(C)CO [2-methyl-1-propanol]
Details | mass density [kg/m3] | refractive index
[3] | 794.34 | –
[4] | – | 1.3939

CCC(C)O (stereo not given) [butan-2-ol]
Details | mass density [kg/m3] | refractive index
[3] | 798.92 | –
[4] | – | 1.3954

CN1CCCC1=O [N-methylpyrrolidone] + CC(C)O
Details | excess molar enthalpy [kcal/mol] | excess molar volume [m3/mol]
[1], x1 = 0.1498 | – | -5.2e-08
[1], x1 = 0.2066 | – | -7.8e-08
[1], x1 = 0.3202 | – | -1.29e-07
[1], x1 = 0.4317 | – | -1.57e-07
[1], x1 = 0.5027 | – | -1.62e-07
[1], x1 = 0.5854 | – | -1.66e-07
[1], x1 = 0.7216 | – | -1.42e-07
[1], x1 = 0.8148 | – | -1.06e-07
[1], x1 = 0.9062 | – | -5.8e-08
[2], x1 = 0.0516 | 0.0709 | –
[2], x1 = 0.1082 | 0.137 | –
[2], x1 = 0.1702 | 0.19 | –
[2], x1 = 0.2279 | 0.223 | –
[2], x1 = 0.2894 | 0.24 | –
[2], x1 = 0.3471 | 0.248 | –
[2], x1 = 0.4059 | 0.246 | –
[2], x1 = 0.4562 | 0.238 | –
[2], x1 = 0.595 | 0.174 | –
[2], x1 = 0.6888 | 0.147 | –
[2], x1 = 0.7874 | 0.113 | –
[2], x1 = 0.892 | 0.0648 | –

CC(C)(C)O [2-methylpropan-2-ol]
Details | mass density [kg/m3] | refractive index
[3] | 776.16 | –
[4] | – | 1.3851

CC(C)CO [2-methyl-1-propanol] + CN1CCCC1=O
Details | excess molar enthalpy [kcal/mol] | excess molar volume [m3/mol]
[1], x2 = 0.1356 | – | -9.8e-08
[1], x2 = 0.2201 | – | -1.47e-07
[1], x2 = 0.2921 | – | -1.74e-07
[1], x2 = 0.4102 | – | -2.06e-07
[1], x2 = 0.5144 | – | -2.26e-07
[1], x2 = 0.5994 | – | -2.32e-07
[1], x2 = 0.6915 | – | -2.21e-07
[1], x2 = 0.8044 | – | -1.86e-07
[1], x2 = 0.9237 | – | -9.6e-08
[2], x2 = 0.051 | 0.0366 | –
[2], x2 = 0.1288 | 0.0654 | –
[2], x2 = 0.2035 | 0.085 | –
[2], x2 = 0.2736 | 0.0939 | –
[2], x2 = 0.3385 | 0.0957 | –
[2], x2 = 0.3939 | 0.0938 | –
[2], x2 = 0.4477 | 0.0902 | –
[2], x2 = 0.4974 | 0.0863 | –
[2], x2 = 0.543 | 0.0817 | –
[2], x2 = 0.6198 | 0.0645 | –
[2], x2 = 0.6816 | 0.0585 | –
[2], x2 = 0.748 | 0.0524 | –
[2], x2 = 0.8179 | 0.0474 | –
[2], x2 = 0.8911 | 0.0354 | –
[2], x2 = 0.9686 | 0.0224 | –

CC(C)(C)O [2-methylpropan-2-ol] + CN1CCCC1=O
Details | excess molar enthalpy [kcal/mol] | excess molar volume [m3/mol]
[1], x2 = 0.1121 | – | -3.2e-08
[1], x2 = 0.2423 | – | -8.4e-08
[1], x2 = 0.3215 | – | -1.16e-07
[1], x2 = 0.4128 | – | -1.36e-07
[1], x2 = 0.4601 | – | -1.52e-07
[1], x2 = 0.5403 | – | -1.48e-07
[1], x2 = 0.6359 | – | -1.42e-07
[1], x2 = 0.7246 | – | -1.18e-07
[1], x2 = 0.8032 | – | -9e-08
[1], x2 = 0.8404 | – | -6.4e-08
[1], x2 = 0.9238 | – | -2.6e-08
[2], x2 = 0.0634 | 0.0223 | –
[2], x2 = 0.1313 | 0.0597 | –
[2], x2 = 0.2034 | 0.094 | –
[2], x2 = 0.2666 | 0.117 | –
[2], x2 = 0.3319 | 0.135 | –
[2], x2 = 0.3942 | 0.145 | –
[2], x2 = 0.4382 | 0.142 | –
[2], x2 = 0.4828 | 0.14 | –
[2], x2 = 0.5381 | 0.137 | –
[2], x2 = 0.6026 | 0.128 | –
[2], x2 = 0.6733 | 0.112 | –
[2], x2 = 0.7442 | 0.0971 | –
[2], x2 = 0.829 | 0.0662 | –
[2], x2 = 0.9194 | 0.0342 | –

CC(C)CCO [3-methylbutan-1-ol]
Details | mass density [kg/m3] | refractive index
[3] | 801.76 | –
[4] | – | 1.4053

CN1CCCC1=O [N-methylpyrrolidone]
Details | mass density [kg/m3] | refractive index
[3] | 1023.4 | –
[4] | – | 1.4674

CN1CCCC1=O [N-methylpyrrolidone] + CCC(C)O
Details | excess molar enthalpy [kcal/mol] | excess molar volume [m3/mol]
[1], x1 = 0.1046 | – | -6.5e-08
[1], x1 = 0.1831 | – | -1.26e-07
[1], x1 = 0.249 | – | -1.62e-07
[1], x1 = 0.3096 | – | -1.93e-07
[1], x1 = 0.3777 | – | -2.19e-07
[1], x1 = 0.4817 | – | -2.38e-07
[1], x1 = 0.5739 | – | -2.3e-07
[1], x1 = 0.6355 | – | -2.16e-07
[1], x1 = 0.7494 | – | -1.64e-07
[1], x1 = 0.8086 | – | -1.36e-07
[1], x1 = 0.9142 | – | -6.4e-08
[2], x1 = 0.0691 | 0.0413 | –
[2], x1 = 0.1595 | 0.0937 | –
[2], x1 = 0.2388 | 0.123 | –
[2], x1 = 0.3106 | 0.134 | –
[2], x1 = 0.3733 | 0.14 | –
[2], x1 = 0.4822 | 0.136 | –
[2], x1 = 0.5305 | 0.131 | –
[2], x1 = 0.5614 | 0.124 | –
[2], x1 = 0.6341 | 0.109 | –
[2], x1 = 0.7217 | 0.0872 | –
[2], x1 = 0.8176 | 0.0598 | –
[2], x1 = 0.9067 | 0.0327 | –

CC(C)O [propan-2-ol]
Details | mass density [kg/m3] | refractive index
[3] | 776.88 | –
[4] | – | 1.375
